# Results from PubChem BioAssay AID1648 (Sanford-Burnham Center for Chemical Genomics, 2009).
# Active and inactive are the calls of the source. No rule for the calls is given here.
# Target: Serine/threonine-protein kinase mTOR (Homo sapiens) (UniProt P42345)
# Assay: mTOR FRB domain ligand binding – biophysical, NMR (AID 1648)
# Settings: NMR binding to FRB domain, chemical shift
# Serine/threonine-protein kinase mTOR (Homo sapiens), sequence (P42345 2015-2114): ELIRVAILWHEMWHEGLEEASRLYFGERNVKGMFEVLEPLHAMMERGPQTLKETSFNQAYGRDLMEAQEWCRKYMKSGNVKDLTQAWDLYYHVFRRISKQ
row,SMILES,Kd
1,CCNC(=S)Nc1c(C)n(C)n(-c2ccccc2)c1=O,> 4 mM (inactive)
2,Cc1noc(C)c1C(=O)Nc1ccccc1-c1ccccc1,> 4 mM (inactive)
3,O=CN1CCN(C2CC(=O)N(c3ccccc3)C2=O)CC1 (stereo not drawn),> 4 mM (inactive)
4,CSc1n[nH]c(NCc2cccs2)n1,> 4 mM (inactive)
5,Cc1cc(C)cc(C(=O)n2cnnc2N)c1,> 4 mM (inactive)
6,NCc1c[nH]c2ccccc12,> 4 mM (inactive)
7,O=C(O)CCCC(=O)Nc1nccs1,> 4 mM (inactive)
8,CN1CCC(=NNC(=O)c2ccco2)CC1,> 4 mM (inactive)
9,O=C(O)c1cccnc1N1CCCC1,> 4 mM (inactive)
10,CN1CCN(C(=O)c2cc(-c3ccccc3)on2)CC1,> 4 mM (inactive)
11,O=C(CN1CCOCC1)Nc1nccs1,> 4 mM (inactive)
12,Oc1ccccc1-c1cc(C(F)(F)F)[nH]n1,> 4 mM (inactive)
13,O=C(O)c1cc(=O)c2cccc(O)c2[nH]1,> 4 mM (inactive)
14,CCCSc1nnc2[nH]c(=O)cc(N)n12,> 4 mM (inactive)
15,Cn1nc(-c2ccccc2)cc1N,> 4 mM (inactive)
16,Cc1cc(=O)oc2cc3c(cc12)OCCO3,> 4 mM (inactive)
17,O=C(COc1ccccc1O)NCCO,> 4 mM (inactive)
18,CC(=O)OC(C)(C)[C@@H]1Cc2cc3ccc(=O)oc3cc2O1,> 4 mM (inactive)
19,COc1ccccc1NC(=O)c1ccc(Br)o1,> 4 mM (inactive)
20,O=c1c(-c2cccs2)[n+]([O-])c2ccccc2n1O,> 4 mM (inactive)
21,COc1ccc(CN2CCNC(=O)C2CC(=O)O)cc1C (stereo not drawn),> 4 mM (inactive)
22,c1ccc2[nH]c(-c3cscn3)nc2c1,> 4 mM (inactive)
23,CC(=O)Oc1cc(OC(C)=O)c2c(c1)O[C@H](c1ccc(OC(C)=O)c(OC(C)=O)c1)[C@H](OC(C)=O)C2,> 4 mM (inactive)

row,SMILES,Kd
1,C(=N\c1nccs1)/c1cccnc1,> 4 mM (inactive)
2,Cc1nc2c(=O)[nH]c3ccccc3c2o1,> 4 mM (inactive)
3,CCNC(CC(=O)Nc1ccc(F)cc1)C(=O)O (stereo not drawn),> 4 mM (inactive)
4,Cc1n[nH]c(=S)n1-c1ccc(C(=O)O)cc1,> 4 mM (inactive)
5,COc1cc([C@H]2Oc3cc([C@H]4Oc5cc(O)cc(O)c5C(=O)[C@@H]4O)ccc3O[C@@H]2CO)ccc1O,> 4 mM (inactive)
6,NCc1csc(-c2ccccc2)n1,> 4 mM (inactive)
7,CC(=O)NC(C)C12CC3CC(CC(C(=O)O)(C3)C1)C2 (stereo not drawn),> 4 mM (inactive)
8,CN1CC(=O)Nc2ccc([N+](=O)[O-])cc2C1=O,> 4 mM (inactive)
9,Cc1cc(C)n(S(=O)(=O)c2ccc(C)c(C)c2C)n1,> 4 mM (inactive)
10,OC[C@@H](O)[C@@H](O[C@@H]1O[C@H](CO)[C@@H](O)[C@H](O)[C@H]1O)[C@H](O)[C@@H](O)CO,> 4 mM (inactive)
11,CC1=C(C(=O)Nc2ccccc2)SCCO1,> 4 mM (inactive)
12,CC1(C)Cc2nc3[nH]c(=S)[nH]c(=O)c3cc2CO1,> 4 mM (inactive)
13,Cc1ccc(N)nc1,> 4 mM (inactive)
14,CCSc1nc(N)c(NC(=O)c2ccco2)c(=O)[nH]1,> 4 mM (inactive)
15,Cc1c(CO)cnn1-c1ccc(F)cc1,> 4 mM (inactive)
16,COC(=O)C1CCc2ccccc2N1 (stereo not drawn),> 4 mM (inactive)
17,O=C(NCc1ccco1)c1ccc(Br)s1,> 4 mM (inactive)
18,COc1cc(N)ccc1NC(=O)c1cccs1,> 4 mM (inactive)
19,Cn1nnc2cc(C(=O)NC3CCCCC3)ccc21,> 4 mM (inactive)
20,CCN1C(=O)c2cccc3c(S(N)(=O)=O)ccc1c23,> 4 mM (inactive)
21,Cc1nc2cc(Cl)ccc2n1CCO,> 4 mM (inactive)
22,NCc1ccc(CN2CCOCC2)cc1,> 4 mM (inactive)
23,CC(C)(C)c1ccc(SCC(N)=O)cc1,> 4 mM (inactive)

row,SMILES,Kd
1,Cc1cc(C(=O)Nc2ccon2)cs1,> 4 mM (inactive)
2,COC(=O)c1ccccc1NC(=O)c1cc[n+]([O-])cc1,> 4 mM (inactive)
3,O=CN1CCN(C(=O)c2ccc(F)cc2)CC1,> 4 mM (inactive)
4,CC(CCC(=O)O)[C@H]1CCC2C3CC[C@@H]4C[C@H](O)CC[C@]4(C)C3C[C@H](O)[C@@]21C (stereo partly drawn),> 4 mM (inactive)
5,COc1ccc(/C=C2\SC(N)=NC2=O)cc1,> 4 mM (inactive)
6,CC[C@H](CCC(C)[C@H]1CCC2C3CCC4C[C@@H](O)CC[C@]4(C)C3CC[C@@]21C)C(C)C (stereo partly drawn),> 4 mM (inactive)
7,CC(=O)O[C@H]1C[C@@H](OC(C)=O)C(C)(C)C2C[C@@H](O)[C@]3(C)C(CC[C@@]4(C)[C@H](c5ccoc5)OC(=O)[C@H]5O[C@]543)[C@]21C (stereo partly drawn),> 4 mM (inactive)
8,O[C@H]1C=C2CCN3Cc4cc5c(cc4C(C23)[C@@H]1O)OCO5 (stereo partly drawn),> 4 mM (inactive)
9,O=C(Cc1ccccc1)Nc1c[nH]c(=O)[nH]c1=O,> 4 mM (inactive)
10,CSc1ccccc1NC(=O)c1c(C)noc1C,> 4 mM (inactive)
11,COc1cc([C@@H]2c3cc4c(c(O)c3C[C@H]3COC(=O)[C@@H]32)OCO4)cc(OC)c1OC,> 4 mM (inactive)
12,CC(=O)Nc1ccc(NC(C)=O)cc1,> 4 mM (inactive)
13,C[C@@H]1CC[C@@]2(NC1)O[C@H]1C[C@H]3C4CC=C5C[C@@H](O)CC[C@]5(C)C4CC[C@]3(C)C1[C@@H]2C (stereo partly drawn),> 4 mM (inactive)
14,Cc1c(/C=N/O)cnn1C,> 4 mM (inactive)
15,CCOc1ccc(C(=O)c2ccncc2)cc1,> 4 mM (inactive)
16,c1ccc(CCc2nc(-c3ccccn3)no2)cc1,> 4 mM (inactive)
17,O=C(O)c1ccc(N2CCOCC2)nc1,> 4 mM (inactive)
18,CC(=O)c1cc(-c2nc3ccccc3n2C)n(C)c1,> 4 mM (inactive)
19,OC12C=CC(CC1)CC2,> 4 mM (inactive)
20,CC(C)CCCC(C)C1CCC2C3C[C@@H](O)[C@@]4(O)C[C@@H](O)CC[C@]4(C)C3CC[C@]12C (stereo partly drawn),> 4 mM (inactive)
21,CC1(C)C2CC[C@]3(C)C(C(=O)C=C4[C@@H]5C[C@@](C)(C(=O)O)CC[C@]5(C)CC[C@]43C)[C@@]2(C)CC[C@@H]1O (stereo partly drawn),> 4 mM (inactive)
22,CC1(C)C[C@@H]2C(=O)CC[C@H]3O[C@]3(C)CC[C@H]21,> 4 mM (inactive)
23,COc1c2c(cc3cc[n+](C)cc13)OCO2,> 4 mM (inactive)

row,SMILES,Kd
1,CN(C)c1nc(N)nc(Cn2ccnc2)n1,> 4 mM (inactive)
2,COc1ccc2c(c1)OC1(O)COc3cc(OC)c(OC)cc3C1=C2 (stereo not drawn),> 4 mM (inactive)
3,C=C[C@H]1CN2CC[C@H]1C[C@@H]2[C@H](O)c1ccnc2ccccc12,> 4 mM (inactive)
4,CC1(C)Cc2cccc(C(=O)O)c2O1,> 4 mM (inactive)
5,COc1cc(C(=O)NCC2CCCO2)cc(OC)c1OC (stereo not drawn),> 4 mM (inactive)
6,O=C(Nc1ccc(O)cc1)N1CCOCC1,> 4 mM (inactive)
7,COc1ccc2ccc(=O)oc2c1,> 4 mM (inactive)
8,Cc1nc(-c2ccccc2)sc1CN,> 4 mM (inactive)
9,CCCCN1C(=O)C2CC/C(=N/O)CC2C1=O (stereo not drawn),> 4 mM (inactive)
10,O=C(c1ccco1)N1C(=O)c2cccc3cccc1c23,> 4 mM (inactive)
11,CC[C@@]1(O)C[C@H](O[C@H]2C[C@H](N(C)C)[C@H](O)[C@H](C)O2)c2c(cc3c(c2O)C(=O)c2c(O)cccc2C3=O)[C@H]1C(=O)OC,> 4 mM (inactive)
12,Cc1ccc2nc(NC(=O)CN3CCOCC3)sc2c1,> 4 mM (inactive)
13,CC(=O)NCC1(c2ccccc2)CCOCC1,> 4 mM (inactive)
14,N#Cc1cnn2c(C(F)(F)F)cc(C(F)(F)F)nc12,> 4 mM (inactive)
15,Cc1ccc(C)c(C(=O)n2cnnc2N)c1,> 4 mM (inactive)
16,Cc1nc2[nH]onc2c2nccc(=O)c12,> 4 mM (inactive)
17,c1ccc(-c2nc3ccccc3nc2-c2ccccn2)nc1,> 4 mM (inactive)
18,CCOC(=O)c1c(C)cc(O)c(C=O)c1O,> 4 mM (inactive)
19,CSc1nc(C)cc(-n2ccc(=O)[nH]c2=O)n1,> 4 mM (inactive)
20,c1ccc(-c2noc(-c3ccc4c(c3)OCO4)n2)nc1,> 4 mM (inactive)
21,COc1ccc2c(c1)OC[C@@H](Cc1ccc(OC)c(OC)c1)[C@H]2O,> 4 mM (inactive)
22,CC(=O)Oc1c(C)cc(O)c2ccccc12,> 4 mM (inactive)
23,COc1c2ccoc2cc2oc(=O)ccc12,> 4 mM (inactive)

row,SMILES,Kd
1,CC1=C(/C=C/C(C)=C/C=C/C(C)=C/C=C/C=C(C)/C=C/C=C(C)/C=C/C2=C(C)CCCC2(C)C)C(C)(C)CCC1,> 4 mM (inactive)
2,NC(=O)C1(c2ccccc2)CCOCC1,> 4 mM (inactive)
3,COC(=O)[C@@H]1OC(=O)C2OC23[C@@]1(C)CCC1[C@]2(C)C(C[C@H](O)[C@]13C)C(C)(C)[C@H](OC(C)=O)C[C@@H]2OC(C)=O (stereo partly drawn),> 4 mM (inactive)
4,Cn1cnnc1Sc1ncnc(N)c1[N+](=O)[O-],> 4 mM (inactive)
5,Cc1nnc2sc(-c3ccco3)nn12,> 4 mM (inactive)
6,Cc1ccc(C2NS(=O)(=O)N=C2N)cc1 (stereo not drawn),> 4 mM (inactive)
7,CNC(=S)N1CCN=C1Nc1nc(C)cc(C)n1,> 4 mM (inactive)
8,NCCCCN=C(N)N,> 4 mM (inactive)
9,O=C(NCc1ccccc1Cl)c1cnn2cccnc12,> 4 mM (inactive)
10,O=C(c1ccncc1)N1CCN(C(=O)c2ccncc2)CC1,> 4 mM (inactive)
11,O=C(O)CC1C(=O)NCCN1Cc1ccccc1 (stereo not drawn),> 4 mM (inactive)
12,O=C(Cc1c(F)cccc1Cl)Nc1ccncc1,> 4 mM (inactive)
13,COC(=O)c1c(C)cc(OC)cc1O,> 4 mM (inactive)
14,COC(=O)Cc1csc(N)n1,> 4 mM (inactive)
15,Cc1cc2cc3c(C)cc(=O)oc3c(C)c2o1,> 4 mM (inactive)
16,Cn1c(=O)c2c(n(C)c1=O)=NC1(CCCCC1)N=2,> 4 mM (inactive)
17,Nc1ccc(-n2cccc2)cc1,> 4 mM (inactive)
18,O=C(O)CC1NCCNC1=O (stereo not drawn),> 4 mM (inactive)
19,O=C(c1cc2ccccc2o1)c1nc2c(n1O)CCCCC2,> 4 mM (inactive)
20,Nc1ncnc2c1ncn2[C@@H]1O[C@H](CO)[C@@H](O)[C@H]1O,> 4 mM (inactive)
21,CN1C(=O)C2C=CC1C1C(=O)N(c3ccccc3)C(=O)C21 (stereo not drawn),> 4 mM (inactive)
